Changes are numbered by the printed parent chain.
Assays:
ALDH1A1 (WT) = molecular target: T1, ALDH1A1 (WT) (Homo sapiens, UniProt P00352); assay: In vitro enzymatic inhibition assay, ALDH1A1 (WT); format: biochemical
T1 sequence (P00352 1-501): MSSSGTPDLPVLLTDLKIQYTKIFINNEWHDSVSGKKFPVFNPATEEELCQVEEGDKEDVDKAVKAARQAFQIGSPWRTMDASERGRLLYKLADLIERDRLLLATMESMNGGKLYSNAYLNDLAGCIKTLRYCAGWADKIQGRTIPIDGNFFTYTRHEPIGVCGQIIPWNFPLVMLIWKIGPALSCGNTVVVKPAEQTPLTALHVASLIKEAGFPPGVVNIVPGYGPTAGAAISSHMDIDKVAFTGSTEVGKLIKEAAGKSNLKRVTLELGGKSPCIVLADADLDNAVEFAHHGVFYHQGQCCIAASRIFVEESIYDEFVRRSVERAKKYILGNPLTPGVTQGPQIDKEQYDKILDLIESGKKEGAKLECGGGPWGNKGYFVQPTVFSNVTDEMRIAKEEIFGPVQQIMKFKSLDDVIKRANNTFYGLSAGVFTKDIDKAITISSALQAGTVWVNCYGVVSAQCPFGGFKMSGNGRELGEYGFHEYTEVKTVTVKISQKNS

ALDH1A3 = molecular target: T2, ALDH1A3 (Homo sapiens, UniProt P47895); assay: In vitro enzymatic inhibition assay, ALDH1A3; format: biochemical; conditions: 2 min incub
T2 sequence (P47895 1-512): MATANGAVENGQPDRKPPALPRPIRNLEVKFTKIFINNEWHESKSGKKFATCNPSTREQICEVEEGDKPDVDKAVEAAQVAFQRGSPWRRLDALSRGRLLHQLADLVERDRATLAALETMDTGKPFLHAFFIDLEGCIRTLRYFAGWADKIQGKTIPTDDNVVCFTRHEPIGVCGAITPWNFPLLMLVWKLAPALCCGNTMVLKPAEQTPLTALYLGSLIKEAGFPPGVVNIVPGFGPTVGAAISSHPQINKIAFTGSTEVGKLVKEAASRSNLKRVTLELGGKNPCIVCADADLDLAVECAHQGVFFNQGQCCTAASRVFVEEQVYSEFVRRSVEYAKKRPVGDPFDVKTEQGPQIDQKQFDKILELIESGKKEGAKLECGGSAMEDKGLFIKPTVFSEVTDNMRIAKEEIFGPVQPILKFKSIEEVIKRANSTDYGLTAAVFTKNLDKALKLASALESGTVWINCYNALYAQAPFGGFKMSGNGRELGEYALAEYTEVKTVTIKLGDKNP

ALDH1A2 = molecular target: T3, ALDH1A2 (Homo sapiens, UniProt O94788); assay: In vitro enzymatic inhibition assay, ALDH1A2; format: biochemical
T3 sequence (O94788 1-518): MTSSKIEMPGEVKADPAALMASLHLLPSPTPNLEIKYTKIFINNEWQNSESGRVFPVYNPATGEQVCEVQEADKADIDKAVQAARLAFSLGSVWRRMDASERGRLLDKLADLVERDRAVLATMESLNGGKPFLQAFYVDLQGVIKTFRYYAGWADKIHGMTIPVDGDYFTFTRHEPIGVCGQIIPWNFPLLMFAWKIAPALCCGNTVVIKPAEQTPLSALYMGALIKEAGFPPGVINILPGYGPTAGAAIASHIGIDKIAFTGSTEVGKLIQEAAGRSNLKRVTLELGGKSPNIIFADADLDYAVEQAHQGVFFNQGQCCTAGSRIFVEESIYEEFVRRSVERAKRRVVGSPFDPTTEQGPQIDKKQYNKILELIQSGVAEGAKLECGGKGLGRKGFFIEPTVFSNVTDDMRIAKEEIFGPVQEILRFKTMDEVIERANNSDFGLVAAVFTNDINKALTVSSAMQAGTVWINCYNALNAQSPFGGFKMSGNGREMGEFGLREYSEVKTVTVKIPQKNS

ALDH1A1 (S121) = molecular target: T4, ALDH1A1 (S121) (Homo sapiens, UniProt P00352, N121S); assay: In vitro enzymatic inhibition assay, ALDH1A1 (S121); format: biochemical
T4 sequence (P00352 1-501 N121S): T1 sequence (P00352 1-501) with N121S

ALDH2 = ALDH2 (Homo sapiens, UniProt P05091); assay: In vitro enzymatic inhibition assay, ALDH2; format: biochemical
Sequence of ALDH2 (P05091 18-517): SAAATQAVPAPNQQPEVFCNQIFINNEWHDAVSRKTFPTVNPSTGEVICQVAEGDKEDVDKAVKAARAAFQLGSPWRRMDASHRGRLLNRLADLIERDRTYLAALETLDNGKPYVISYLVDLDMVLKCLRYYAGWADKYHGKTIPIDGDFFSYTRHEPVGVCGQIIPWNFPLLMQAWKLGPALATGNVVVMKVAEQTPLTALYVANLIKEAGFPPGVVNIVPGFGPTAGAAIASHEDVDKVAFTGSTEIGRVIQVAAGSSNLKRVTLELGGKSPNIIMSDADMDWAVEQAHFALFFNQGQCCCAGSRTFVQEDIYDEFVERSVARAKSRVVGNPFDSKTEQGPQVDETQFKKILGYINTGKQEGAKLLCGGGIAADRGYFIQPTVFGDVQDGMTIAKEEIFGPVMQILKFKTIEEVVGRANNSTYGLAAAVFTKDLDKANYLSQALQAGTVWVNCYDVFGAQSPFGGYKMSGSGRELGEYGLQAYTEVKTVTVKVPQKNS

[1] = tested on: A2780 tumor cell xenografts; assay: A2780 tumor cell xenografts, tumor growth; format: in vivo, mice; conditions: unsorted A2780 cells, treatment from day 3
Experimental: 6-8 week old nude female mice were purchased from Charles River Laboratories. All xenograft experiments were performed with approval of the University Committee on Use and Care of Animals of the University of Michigan. To generate tumors, 7.5×10^4 unsorted A2780 cells or 7500 CD133+ sorted A2780 cells were combined with 100 μl of DPBS and 100 μl of Matrigel (BD Biosciences), and then implanted subcutaneously into bilateral axillae of each mouse. 3 days after inoculation with tumors, mice were given an intra-peritoneal injection of (1) control DMSO 40 μl, (2) Cisplatin 250 μg/ml, (3) UM #673 10 μM, or (4) Cisplatin plus UM #673 (n=9 mice per treatment group). Tumor growth was measured using calipers, and tumor volume was calculated based on the modified ellipsoid formula (L×W×W/2), where L is the length and W is the width of the tumor. The mice were euthanized when tumors reached 1.5 to 2 cm^3 and animal safety euthanasia guidelines were met. Intraperitoneal tumors were generated using 5×10^6 OVCAR8 in […] of PBS and injected I.P. 3 days after inoculation, mice were given intra-peritoneal injection of Cisplatin or Cisplatin plus UM #673.
The impact of UM673 as a single agent was evaluated. NOD/SCID mice were inoculated with 1×10^5 unsorted A2780 cells and treatment was initiated three days after tumor inoculation with either vehicle control or UM #673. […] This is consistent with other studies of CSC targeting agents.
The experiments were repeated in combination with cisplatin. In addition, xenografts from both whole cell line and FACS isolated CD133+ cells were treated.

ALDH+ cells = assay: Time to recovery after treatment, isolated ALDH+ cells; format: cell-based
Text: (§1) A. Time to recovery for SKOV3 ovarian cancer cells treated with cisplatin or combined cisplatin and ALDH inhibitor. […] Cisplatin treated ALDH+ cells required approximately 6 days to recover whereas cisplatin treated ALDH− cells required 14 days to recover.

[2] = tested on: primary human tumor xenografts; assay: Primary human tumor xenografts from chemotherapy refractory ovarian cancer; format: in vivo, mice; conditions: treatment started at ˜500 mm^3
Text: In order to confirm in vivo activity against primary ovarian cancers, primary human tumor xenografts were generated from a patient with chemotherapy refractory ovarian cancer. Xenografts were allowed to grow until they reached ˜500 mm^3, and then treatment with either vehicle, cisplatin or cisplatin and UM 673 was initiated. […] After discontinuation of therapy, tumor regrowth was observed after approximately 4 weeks (FIG. 5D).

ALDH− cells = assay: Time to recovery after treatment, isolated ALDH− cells; format: cell-based
Text: as §1

[3] = tested on: in vitro treated, PI-/Annexin-FACS isolated live cells; assay: Tumor initiation capacity of in vitro treated live cells injected into mice; format: in vivo
Experimental: An important functional aspect of a cancer stem cell is the ability to initiate tumors with limited cell numbers. In order to determine if UM673 could impact tumor initiation, cells were treated in vitro with a single dose of UM673 alone or in combination with cisplatin. Cells were allowed to recover for three days and then PI(−)/Annexin(−) live cells were faxed isolated and injected into mice. 200, 1000, or 5000 cells from each treatment group (n=4-10/group) were injected.

Row | Compound | IC50 (ALDH1A1 (WT)) [nM] | IC50 (ALDH1A3) [nM] | IC50 (ALDH1A2) [nM] | IC50 (ALDH1A1 (S121)) [nM] | IC50 (ALDH2) [nM] | tumor growth [1] | time to recover back to initial cell levels (ALDH+ cells) | tumor growth [2] | time to recover (ALDH− cells) [days] | tumor initiation (tumors/injections) ([3]; 200 cells injected) | tumor initiation (tumors/injections) ([3]; 1000 cells injected) | tumor initiation (tumors/injections) ([3]; 5000 cells injected) | effect on tumor initiation capacity ([3]; compared to untreated controls)
1 | O=Cc1ccc(N2Cc3ccccc3C2)cc1 [673B] | 450 ± 35 | 1340 ± 480 | 800 ± 147 | 1240 ± 118 | > 20000 |  |  |  |  |  |  |  | 
2 | N.N.[Cl][Pt][Cl] [Cisplatin, reference compound] |  |  |  |  |  | modest restrictions in tumor growth | approximately 6 days | no effect on tumor growth | 14 | 1/4 | 4/4 | 8/8 | neither cisplatin or UM673 affected tumor initiation
3 | Cc1cc(N2Cc3ccccc3C2)ccc1C=O [673A] | 216 ± 22 | 170 ± 28 | 211 ± 36 | 230 ± 10 | 1680 ± 190 |  |  |  |  |  |  |  | 

— patent US9468632B2, “Methods and compositions for targeting cancer stem cells” (The Regents of the University of Michigan, priority 2012, dated 2016)
